Reference: US10280179B2, “Spiroquinoxaline derivatives as inhibitors of non-apoptotic regulated cell-death” (Helmholtz Zentrum Munchen—Deutches Forschungszentrum Fur …, priority 2013, dated 2019)
Read-outs that look alike come from different tables or passages of the source.

Experiments:
[1] = Cellular toxicity, same assay as Example B.4 without TAM (Example B.5); assay type: cell-based; conditions: mouse; Pfa1 cells without TAM; read-out: TC50 (the source's name)
From the text: Cellular Toxicity of Compounds of the Invention
An estimate of the toxicity for compounds of the invention was obtained by using the same assay as described in Example B.4, but without the addition of TAM. […] Such TC50 values obtained for certain compounds disclosed herein, together with an approximate therapeutic window (estimated by dividing each TC50 by the corresponding IC50 determined from example B.4) are shown in Table 3.

[2] = tested on: SH-SY5Y cells; experiment: TNF-alpha-induced apoptosis, specificity for non-apoptotic cell death (Example B.3); assay type: cell-based, human; conditions: compound 1 μM, TNF-alpha 10 ng/mL, FIG. 1
Experimental: SH-SY5Y cells were propagated and seeded in 96-well plates, together with compound N-1, N-2, N-10 of Table 1-N (FIG. 1(a)), compound O/S-6 or O/S-3 of Table 1-O/S (FIG. 1(b)), or compound C-12, C-91, or C-205 of Table 1-C (FIG. 1(c)) (each 1 μM) and TNF-alpha was added (final concentration: 10 ng/mL) to induce apoptosis. The apoptosis and pan-caspase inhibitor z-vad (final concentration: 50 μM) and the necroptosis inhibitor Necrostatin-1 (Nec-1; final concentration: 5 μM) were used for comparison. Control wells were established with vehicle only (DMSO), with and without treatment with TNF-alpha to induce apoptosis. Cells were incubated, and cell survival was detected and quantified. Percentage cell survival after TNF-alpha-induced apoptosis is shown (error bars indicate standard deviation (SD)).
Briefly, SH-SY5Y cells were propagated and seeded in 96-well plates, together with the compound to be tested (1 μM), generally as described in Example B.1, except they were seeded at 1,000 cell/well and instead of BSO, TNF-alpha (Invitrogen) was added to a final concentration of 10 ng/mL to induce apoptosis. The apoptosis and pan-caspase inhibitor Z-VAD-fmk (Enzo Life Science; final concentration 50 μM) and the necroptosis inhibitor Necrostatin-1 (Nec-1; Enzo Life Science; final concentration 5 μM) were used for comparison. Control wells were established with vehicle only (DMSO), with and without treatment with TNF-alpha to induce apoptosis. Cells were incubated, and cell survival was detected and quantified as described in Example B.1.

[3] = tested on: Pfa1 cells; experiment: Inhibition of non-apoptotic cell death after tamoxifen-induced GPx4 knockout in a recombinant cell line (Example B.4); assay type: cell-based; conditions: Mus musculus, read-out: Pfa1/TAM IC50
Procedure, shortened: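 Immortalised murine fibroblasts with tamoxifen-inducible CreERT2 for ablation of both GPx4 copies (Pfa1 cells) received tamoxifen on day 0 together with test compound. Cell survival was measured by AlamarBlue after 72 hours.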

[4] = tested on: human neuroblastoma cell line SH-SY5Y; experiment: Inhibition of BSO-induced non-apoptotic cell death (Example B.1); assay type: cell-based; conditions: SH-SY5Y cells, 72 hours
From the text: Inhibition of BSO-Induced Non-Apoptotic Cell Death by Compounds Disclosed Herein
L-Buthionine sulfoximine (BSO) is a well-known glutathione (GSH) depletory, which inhibits gamma-glutamyl-cysteine-synthetase, the enzyme catalyzing the rate-limiting step in GSH biosynthesis. The human neuroblastoma cell line SH-SY5Y is sensitive to BSO-induced intracellular glutathione depletion, which causes high levels of reactive oxygen species (ROS) and cellular stress mimicking cellular conditions following ischemia (cf., e.g., Yamada et al., Neurochem. Int. 59:1003-9 (2011)).
Compounds disclosed herein were evaluated for their ability to promote cell survival upon administration of a lethal dose of BSO to cell-culture medium. Briefly, SH-SY5Y cells (ATCC® CRL-2266™) were propagated in DMEM supplemented with 10% FBS/1% Penicillin-Streptomycin, and then seeded onto 96-well plates at a concentration of 750 cells/well in 100 μL of media, to which BSO (Sigma Aldrich) was added (to a final concentration of 50 μM) together with increasing concentrations of the compound to be tested, and the plates incubated at 37° C./5% CO2 for 72 hours. Compound dilutions (0.5 pM to 100 μM) were prepared from 10 mM stocks dissolved in DMSO and diluted in media. Cells treated with BSO alone were used as negative control and alpha-Tocopherol (Sigma Aldrich) was used as positive control. Compound concentrations were tested in triplicate. After incubation, cell survival was detected using the live/dead cell assay AquaBluer™ (MultiTarget Pharmaceuticals) and quantified using a fluorescence plate reader (excitation filter: 530-560 nm/emission filter: 590 nm) (SpectraMax M4; Molecular Devices). Fluorescence data so obtained was normalised to the percentage of surviving cells and IC50 values calculated using the GraphPad Prism (GraphPad Software, Inc) software package.

[5] = tested on: mouse hippocampal cell line (Ht22); experiment: Inhibition of glutamate-induced non-apoptotic cell death (Example B.2); assay type: cell-based; conditions: HT-22, Ht22 cells
Procedure, shortened: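 Ht22 cells (2,000/well, DMEM/10% FBS) seeded together with 5 mM glutamate and compound (0.5 pM to 100 μM, triplicate), incubated 72 h at 37 °C/5% CO2. Cell survival then quantified; glutamate alone as negative control, alpha-tocopherol as positive control.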

[6] = 50 μM BSO, read-out: SH-SY5Y/BSO IC50
[7] = BSO 50 μM, cell survival (AquaBluer), read-out: SH-SY5Y/BSO (Example B.1) IC50
[8] = glutamate 5 mM, 72 hours, cell survival, read-out: Ht22/GLU (Example B.2) IC50
[9] = glutamate-induced cell death, read-out: Ht22/GLU

Clc1ccccc1CNC1=Nc2ccccc2NC12CCCCCC2 [C-205]
CC50 [1]: 20000 to 50000 nM
Percentage cell survival after TNF-alpha-induced apoptosis [2]: Non-inhibition of apoptotic cell-death
IC50 [3]: < 200 nM
IC50 [4, 6]: < 100 nM
IC50 [4, 7]: 46.7 nM
IC50 [5, 8]: ~100 nM
IC50 [5, 9]: < 500 nM

Clc1ccc(CNC2=Nc3ccccc3NC23CCOCC3)cc1 [O/S-3]
CC50 [1]: 20000 to 50000 nM
Percentage cell survival after TNF-alpha-induced apoptosis [2]: Non-inhibition of apoptotic cell-death
IC50 [3]: < 500 nM
IC50 [4, 6]: < 500 nM
IC50 [4, 7]: ~100 nM
IC50 [5, 8]: ~100 nM
IC50 [5, 9]: < 100 nM

Clc1ccccc1CNC1=Nc2ccccc2NC12CCNCC2 [N-1]
CC50 [1]: 10000 to 20000 nM
Percentage cell survival after TNF-alpha-induced apoptosis [2]: Non-inhibition of apoptotic cell-death
IC50 [3]: < 50 nM
IC50 [4, 6]: < 20 nM
IC50 [4, 7]: 6.51 nM
IC50 [5, 8]: 10.3 nM
IC50 [5, 9]: < 200 nM

CC1CCC2(CC1)Nc1ccccc1N=C2NCc1ccccc1Cl (centres unmarked) [C-91]
CC50 [1]: 10000 to 20000 nM
Percentage cell survival after TNF-alpha-induced apoptosis [2]: Non-inhibition of apoptotic cell-death
IC50 [3]: < 200 nM
IC50 [4, 6]: < 20 nM
IC50 [4, 7]: 9.33 nM
IC50 [5, 8]: ~50 nM
IC50 [5, 9]: < 200 nM

Cc1cc2c(cc1C)NC1(CCNCC1)C(NCc1ccccc1)=N2 [N-210]
CC50 [1]: 2000 to 5000 nM
IC50 [3]: < 10 nM
IC50 [4, 6]: < 50 nM
IC50 [5, 9]: < 50 nM

Fc1cc(Cl)ccc1CNC1=Nc2ccccc2NC12CCNCC2 [N-61]
CC50 [1]: 20000 to 50000 nM
IC50 [3]: < 50 nM
IC50 [4, 6]: < 50 nM
IC50 [5, 9]: < 50 nM

FC1(F)Oc2cc3c(cc2O1)NC1(CCOCC1)C(NCc1ccccc1)=N3 [O/S-366]
CC50 [1]: 20000 to 50000 nM
IC50 [3]: < 100 nM
IC50 [4, 6]: < 50 nM
IC50 [5, 9]: < 100 nM

CN1CCC2(CC1)Nc1ccccc1N=C2NCc1cccc(Cl)c1 [N-90]
CC50 [1]: 10000 to 20000 nM
IC50 [3]: < 20 nM
IC50 [4, 6]: < 50 nM
IC50 [5, 9]: < 200 nM

Fc1ccc(CNC2=Nc3ccccc3NC23CCOCC3)cc1 [O/S-6]
CC50 [1]: 50000 to 100000 nM
IC50 [3]: < 1000 nM
IC50 [4, 6]: < 500 nM
IC50 [4, 7]: 68.3 nM
IC50 [5, 8]: 218 nM
IC50 [5, 9]: < 500 nM

c1ccc(CNC2=Nc3cc4c(cc3NC23CCCCC3)OCCO4)cc1 [C-223]
CC50 [1]: 20000 to 50000 nM
IC50 [3]: < 200 nM
IC50 [4, 6]: < 500 nM
IC50 [5, 9]: < 1000 nM

Clc1cccc(CNC2=Nc3ccccc3NC23CCCCCC3)c1 [C-216]
CC50 [1]: 10000 to 20000 nM
IC50 [3]: < 100 nM
IC50 [4, 6]: < 50 nM
IC50 [5, 9]: < 500 nM

Cc1cc2c(cc1C)NC1(CCNCC1)C(NCc1cccc(C(F)(F)F)c1)=N2 [N-251]
CC50 [1]: 500 to 1000 nM
IC50 [3]: < 100 nM
IC50 [4, 6]: < 10 nM
IC50 [5, 9]: < 50 nM

Clc1ccc2c(c1)N=C(NCc1ccccc1)C1(CCCCC1)N2 [C-258]
CC50 [1]: 10000 to 20000 nM
IC50 [3]: < 200 nM
IC50 [4, 6]: < 50 nM
IC50 [5, 9]: < 500 nM

c1ccc(CNC2=Nc3ccccc3NC23CCSCC3)cc1 [O/S-338]
CC50 [1]: 50000 to 100000 nM
IC50 [3]: < 1000 nM
IC50 [4, 6]: < 500 nM
IC50 [5, 9]: < 5000 nM

FC(F)(F)c1cccc(CNC2=Nc3ccccc3NC23CCCCCC3)c1 [C-261]
CC50 [1]: 10000 to 20000 nM
IC50 [3]: < 500 nM
IC50 [4, 6]: < 50 nM
IC50 [5, 9]: < 500 nM

Clc1ccc(CNC2=Nc3cc(Cl)c(Cl)cc3NC23CCNCC3)cc1Cl [N-258]
CC50 [1]: 100 to 200 nM
IC50 [3]: < 100 nM
IC50 [4, 6]: < 20 nM
IC50 [5, 9]: < 50 nM

Clc1ccccc1CNC1=Nc2ccccc2NC12CCCCC2 [C-1]
CC50 [1]: 20000 to 50000 nM
IC50 [3]: < 500 nM
IC50 [4, 6]: < 500 nM
IC50 [5, 9]: < 1000 nM

c1ccc(CNC2=Nc3ccccc3NC23CCCCCC3)cc1 [C-214]
CC50 [1]: 10000 to 20000 nM
IC50 [3]: < 500 nM
IC50 [4, 6]: < 500 nM
IC50 [5, 9]: < 1000 nM

Clc1cccc(CNC2=Nc3cc4c(cc3NC23CCNCC3)OCCO4)c1 [N-219]
CC50 [1]: 20000 to 50000 nM
IC50 [3]: < 1000 nM
IC50 [4, 6]: < 500 nM
IC50 [5, 9]: < 1000 nM

CC(NC1=Nc2ccccc2NC12CCSCC2)c1ccccc1 (centres unmarked) [O/S-367]
CC50 [1]: 20000 to 50000 nM
IC50 [3]: < 1000 nM
IC50 [4, 6]: < 200 nM
IC50 [5, 9]: < 500 nM

FC(F)(F)c1cccc(CNC2=Nc3ccccc3NC23CCNCC3)c1 [N-23]
CC50 [1]: 20000 to 50000 nM
IC50 [3]: < 50 nM
IC50 [4, 6]: < 20 nM
IC50 [5, 9]: < 50 nM

c1ccc(CNC2=Nc3ccccc3NC23CCOCC3)cc1 [O/S-337]
CC50 [1]: 50000 to 100000 nM
IC50 [3]: < 5000 nM
IC50 [4, 6]: < 500 nM
IC50 [5, 9]: < 5000 nM

Cc1ccccc1CNC1=Nc2ccccc2NC12CCNCC2 [N-10]
CC50 [1]: 5000 to 10000 nM
IC50 [3]: < 100 nM
IC50 [4, 6]: < 20 nM
IC50 [4, 7]: ~5 nM
IC50 [5, 8]: 10 to 50 nM
IC50 [5, 9]: < 50 nM

Clc1cccc(CNC2=Nc3ccccc3NC23CCOCC3)c1 [O/S-2]
CC50 [1]: 20000 to 50000 nM
IC50 [3]: < 500 nM
IC50 [4, 6]: < 200 nM
IC50 [5, 9]: < 1000 nM

Fc1cc2c(cc1F)NC1(CCNCC1)C(NCc1ccccc1)=N2 [N-223]
CC50 [1]: 20000 to 50000 nM
IC50 [3]: < 50 nM
IC50 [4, 6]: < 50 nM
IC50 [5, 9]: < 50 nM
